From ChEMBL document CHEMBL4334438, “Discovery of novel glycogen synthase kinase-3α inhibitors: Structure-based virtual screening, preliminary SAR and biological evaluation for treatment of acute myeloid leukemia” (Eur J Med Chem, 2019) come the findings set out here.

Molecules are shown by their SMILES.

The target of experiment [1] is Activin receptor type-1-like (Homo sapiens) (UniProt P37023). The experiment in a line: Inhibition of recombinant human ALK1 (142 to end residues) assessed as residual activity at 1 uM using casein as substrate incubated for 40 mins in presence of [gamma-33ATP] by scintillation counting based radiometry assay relative to control.
Experiment [2] has as its target Mitogen-activated protein kinase kinase kinase 5 (Homo sapiens) (UniProt Q99683). The experiment in a line: Inhibition of recombinant human ASK1 (649 to 946 residues) assessed as residual activity at 1 uM using myelin basic protein as substrate incubated for 40 mins in presence of [gamma-33ATP] by scintillation counting based radiometry assay relative to control.

Experiment [3] has as its target Calcium/calmodulin-dependent protein kinase type 1D (Homo sapiens) (UniProt Q8IU85). The experiment in a line: Inhibition of recombinant full length human CaMK1delta assessed as residual activity at 1 uM […] incubated for 40 mins in presence of [gamma-33ATP] by scintillation counting based radiometry assay relative to control.
The target in experiment [4] is Cyclin-dependent kinase-like 3 (Homo sapiens) (UniProt Q8IVW4). The experiment in a line: Inhibition of recombinant full length human CDKL3 assessed as residual activity at 1 uM using RRRFRPASPLRGPPK as substrate incubated for 120 mins in presence of [gamma-33ATP] by scintillation counting based radiometry assay relative to control.
For experiment [5], the target named is Dual specificity protein kinase CLK4 (Homo sapiens) (UniProt Q9HAZ1). The experiment in a line: Inhibition of recombinant human CLK4 (128 to end residues) assessed as residual activity at 1 uM using YRRAAVPPSPSLSR as substrate incubated 40 mins in presence of [gamma-33ATP] by scintillation counting based radiometry assay relative to control.
For experiment [6], the target named is Dual specificity tyrosine-phosphorylation-regulated kinase 2 (Homo sapiens) (UniProt Q92630). The experiment in a line: Inhibition of recombinant human DYRK2 assessed as residual activity at 1 uM using casein as substrate at 40 mins in presence of [gamma-33ATP] by scintillation counting based radiometry assay relative to control.
Experiment [7] deals with Homeodomain-interacting protein kinase 2 (Homo sapiens), Q9H2X6 [UNDEFINED MUTATION]. The experiment in a line: Inhibition of human HIPK2 I471N mutant (165 to 564 residues) assessed as residual activity at 1 uM using myelin basic protein as substrate after 40 mins by [gamma-33ATP] radiometric assay relative to control.
Experiment [8] has as its target Homeodomain-interacting protein kinase 3 (Homo sapiens) (UniProt Q9H422). The experiment in a line: Inhibition of human HIPK3 (161 to 562 residues) assessed as residual activity at 1 uM using myelin basic protein as substrate after 40 mins by [gamma-33ATP] radiometric assay relative to control.
The target in experiment [9] is MAP kinase-activated protein kinase 3 (Homo sapiens) (UniProt Q16644). The experiment in a line: Inhibition of recombinant human MAPKAPK3 (2 to end residues) assessed as residual activity at 1 uM using KKLNRTLSVA as substrate incubated for 40 mins in presence of [gamma-33ATP by scintillation counting based radiometry assay relative to control.
Experiment [10] has as its target Dual specificity mitogen-activated protein kinase kinase 1 (Homo sapiens) (UniProt Q02750). The experiment in a line: Inhibition of recombinant human MEK1 assessed as residual activity at 1 uM using inactive MAPK2 as substrate incubated for 40 mins in presence of [gamma-33ATP by scintillation counting based radiometry assay relative to control.
Experiment [11] concerns the target Serine/threonine-protein kinase MRCK alpha (Homo sapiens) (UniProt Q5VT25). The experiment in a line: Inhibition of recombinant human MRCKalpha (1 to 473 residues) assessed as residual activity at 1 uM using KKRNRTLTV as substrate measured after 40 mins in presence of [gamma33P]ATP by scintillation counting method relative to control.
Experiment [12] deals with Serine/threonine-protein kinase Nek7 (Homo sapiens) (UniProt Q8TDX7). The experiment in a line: Inhibition of recombinant human NEK7 (2 to end residues) assessed as residual activity at 1 uM using FLAKSFGSPNRAYKK as substrate measured after 40 mins in presence of [gamma33P]ATP by scintillation counting method relative to control.
Experiment [13] deals with Ribosomal protein S6 kinase beta-1 (Homo sapiens), P23443 [T412E]. The experiment in a line: Inhibition of recombinant human p70S6K T412E mutant (1 to 421 residues) assessed as residual activity at 1 uM using KKRNRTLTV as substrate measured after 40 mins in presence of [gamma33P]ATP by scintillation counting method relative to control.
The subject of experiment [14] is RAC-beta serine/threonine-protein kinase (Homo sapiens), P31751 [S474D]. The experiment in a line: Inhibition of recombinant human PKBbeta S474D mutant (120 to end residues) assessed as residual activity at 1 uM using GRPRTSSFAEGKK as substrate measured after 40 mins in presence of [gamma33P]ATP by scintillation counting method relative to control.
The target of experiment [15] is Protein-tyrosine kinase 2-beta (Homo sapiens) (UniProt Q14289). The experiment in a line: Inhibition of recombinant human full length PYK2 assessed as residual activity at 1 uM using poly(Glu, Tyr) 4:1 as substrate measured after 40 mins in presence of [gamma33P]ATP by scintillation counting method relative to control.
Experiment [16] addresses Tyrosine-protein kinase SYK (Homo sapiens) (UniProt P43405). The experiment in a line: Inhibition of recombinant full-length human Syk at 1 uM assessed as residual activity at 1 uM using poly(Glu, Tyr) 4:1 as substrate measured after 120 mins in presence of [gamma33P]ATP by scintillation counting method relative to control.
In experiment [17] the target is High affinity nerve growth factor receptor (Homo sapiens) (UniProt P04629). The experiment in a line: Inhibition of human TrkA (440 to end residues) assessed as residual activity at 1 uM using KKKSPGEYVNIEFG as substrate measured after 40 mins in presence of [gamma33P]ATP by scintillation counting method relative to control.
The target of experiment [18] is Serine/threonine-protein kinase VRK2 (Homo sapiens) (UniProt Q86Y07). The experiment in a line: Inhibition of human VRK2 (1 to 336 residues) assessed as residual activity at 1 uM using casein as substrate measured after 40 mins in presence of [gamma33P]ATP by scintillation counting method relative to control.
Experiment [19] has as its target Tyrosine-protein kinase ZAP-70 (Homo sapiens) (UniProt P43403). The experiment in a line: Inhibition of recombinant full-length human ZAP70 at 1 uM assessed as residual activity at 1 uM using poly(Glu, Tyr) 4:1 as substrate measured after 40 mins in presence of [gamma33P]ATP by scintillation counting method relative to control.
Experiment [20] addresses Serine-protein kinase ATM (Homo sapiens) (UniProt Q13315). The experiment in a line: Inhibition of recombinant full-length human ATM at 1 uM assessed as residual activity at 1 uM using GST-cMyc-p53 as substrate measured after 40 mins by ELISA. (An ELISA detects its analyte on a solid surface through an enzyme-linked reagent.)
Experiment [21] deals with Phosphatidylinositol 5-phosphate 4-kinase type-2 alpha (Homo sapiens) (UniProt P48426). The experiment in a line: Inhibition of recombinant full-length human PIP4K2alpha at 1 uM assessed as residual activity at 1 uM using phosphatidylinositol 5-phosphate as substrate measured after 40 mins by HTRF assay. On the technique in general: Time-resolved FRET reads energy transfer from a long-lived donor to a nearby acceptor.
Phosphatidylinositol 5-phosphate 4-kinase type-2 alpha (Homo sapiens), sequence (P48426 whole entry): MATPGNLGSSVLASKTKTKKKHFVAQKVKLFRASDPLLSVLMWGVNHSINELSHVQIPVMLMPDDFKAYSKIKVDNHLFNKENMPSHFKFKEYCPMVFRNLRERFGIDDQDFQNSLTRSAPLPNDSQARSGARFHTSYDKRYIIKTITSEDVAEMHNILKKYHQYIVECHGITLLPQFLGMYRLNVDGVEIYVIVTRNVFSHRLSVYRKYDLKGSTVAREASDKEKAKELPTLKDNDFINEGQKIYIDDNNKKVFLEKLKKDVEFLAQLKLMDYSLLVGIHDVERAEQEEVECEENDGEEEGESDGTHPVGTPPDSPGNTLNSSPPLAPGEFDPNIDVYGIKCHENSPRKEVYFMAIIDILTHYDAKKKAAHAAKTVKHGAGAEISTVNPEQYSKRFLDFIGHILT

Serine/threonine-protein kinase Nek7 (Homo sapiens), sequence (Q8TDX7 whole entry, looked up, the tested form may be a part): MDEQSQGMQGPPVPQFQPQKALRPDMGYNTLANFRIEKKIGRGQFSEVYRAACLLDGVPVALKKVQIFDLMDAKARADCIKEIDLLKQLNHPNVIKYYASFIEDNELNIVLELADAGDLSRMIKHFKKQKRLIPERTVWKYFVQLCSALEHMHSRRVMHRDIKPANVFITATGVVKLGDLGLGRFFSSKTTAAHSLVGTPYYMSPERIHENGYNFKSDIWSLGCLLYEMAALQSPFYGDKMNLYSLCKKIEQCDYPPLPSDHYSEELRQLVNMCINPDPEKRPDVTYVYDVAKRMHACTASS
Protein-tyrosine kinase 2-beta (Homo sapiens), sequence (Q14289 whole entry, looked up): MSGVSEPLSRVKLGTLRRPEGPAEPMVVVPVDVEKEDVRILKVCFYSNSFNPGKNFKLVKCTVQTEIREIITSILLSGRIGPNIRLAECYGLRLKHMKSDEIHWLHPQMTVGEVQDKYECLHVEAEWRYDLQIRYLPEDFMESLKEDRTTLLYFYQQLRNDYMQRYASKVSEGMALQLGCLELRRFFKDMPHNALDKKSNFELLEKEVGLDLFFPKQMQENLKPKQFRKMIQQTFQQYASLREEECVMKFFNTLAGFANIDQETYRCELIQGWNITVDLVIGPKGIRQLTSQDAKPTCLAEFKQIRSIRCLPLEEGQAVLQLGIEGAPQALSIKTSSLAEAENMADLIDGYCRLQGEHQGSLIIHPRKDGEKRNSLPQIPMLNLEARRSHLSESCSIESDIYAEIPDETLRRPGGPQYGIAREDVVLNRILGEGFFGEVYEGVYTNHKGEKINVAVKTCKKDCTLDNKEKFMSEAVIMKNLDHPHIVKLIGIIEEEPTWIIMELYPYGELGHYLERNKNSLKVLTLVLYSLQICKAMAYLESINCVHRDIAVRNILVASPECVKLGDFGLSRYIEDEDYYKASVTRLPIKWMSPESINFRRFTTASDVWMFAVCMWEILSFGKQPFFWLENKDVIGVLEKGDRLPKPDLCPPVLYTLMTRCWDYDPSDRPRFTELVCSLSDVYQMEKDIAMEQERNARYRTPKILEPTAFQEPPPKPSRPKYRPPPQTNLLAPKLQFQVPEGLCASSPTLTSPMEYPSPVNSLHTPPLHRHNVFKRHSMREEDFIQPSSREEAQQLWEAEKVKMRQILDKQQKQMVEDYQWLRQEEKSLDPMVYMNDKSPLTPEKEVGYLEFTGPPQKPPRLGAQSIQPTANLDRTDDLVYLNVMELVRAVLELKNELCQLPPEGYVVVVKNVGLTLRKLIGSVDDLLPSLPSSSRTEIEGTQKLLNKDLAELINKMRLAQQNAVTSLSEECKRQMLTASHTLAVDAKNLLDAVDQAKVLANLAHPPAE
Activin receptor type-1-like (Homo sapiens), sequence (P37023 whole entry, the tested form may be a part): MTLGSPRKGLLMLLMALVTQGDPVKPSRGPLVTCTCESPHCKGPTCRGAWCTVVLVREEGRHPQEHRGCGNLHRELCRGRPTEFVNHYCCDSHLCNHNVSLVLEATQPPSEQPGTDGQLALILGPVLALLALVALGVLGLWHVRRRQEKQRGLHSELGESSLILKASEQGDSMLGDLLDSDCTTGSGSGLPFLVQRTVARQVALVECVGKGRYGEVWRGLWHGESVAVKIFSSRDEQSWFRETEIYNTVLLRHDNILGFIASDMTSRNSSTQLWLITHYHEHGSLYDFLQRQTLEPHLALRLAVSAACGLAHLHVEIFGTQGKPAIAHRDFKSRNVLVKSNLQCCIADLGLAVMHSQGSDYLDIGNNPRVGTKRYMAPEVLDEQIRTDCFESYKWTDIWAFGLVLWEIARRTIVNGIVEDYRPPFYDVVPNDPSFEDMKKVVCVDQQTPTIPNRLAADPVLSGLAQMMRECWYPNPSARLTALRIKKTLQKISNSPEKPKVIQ
Ribosomal protein S6 kinase beta-1 (Homo sapiens), P23443 [T412E], sequence (P23443 whole entry T412E, looked up, the tested form may be a part): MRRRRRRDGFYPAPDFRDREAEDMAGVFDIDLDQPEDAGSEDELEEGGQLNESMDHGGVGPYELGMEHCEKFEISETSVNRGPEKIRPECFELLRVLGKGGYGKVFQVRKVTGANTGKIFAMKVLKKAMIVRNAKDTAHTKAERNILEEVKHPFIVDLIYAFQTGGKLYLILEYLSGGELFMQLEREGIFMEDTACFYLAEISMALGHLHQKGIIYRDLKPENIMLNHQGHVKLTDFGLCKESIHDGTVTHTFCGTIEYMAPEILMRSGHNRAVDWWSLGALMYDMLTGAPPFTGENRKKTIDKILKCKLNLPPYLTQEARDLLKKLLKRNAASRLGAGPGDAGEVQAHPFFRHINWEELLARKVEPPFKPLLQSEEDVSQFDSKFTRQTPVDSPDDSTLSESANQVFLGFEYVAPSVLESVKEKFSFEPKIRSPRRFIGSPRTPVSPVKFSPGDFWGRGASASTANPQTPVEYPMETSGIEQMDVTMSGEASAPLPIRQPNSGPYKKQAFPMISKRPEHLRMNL
Dual specificity mitogen-activated protein kinase kinase 1 (Homo sapiens), sequence (Q02750 whole entry, the tested form may be a part): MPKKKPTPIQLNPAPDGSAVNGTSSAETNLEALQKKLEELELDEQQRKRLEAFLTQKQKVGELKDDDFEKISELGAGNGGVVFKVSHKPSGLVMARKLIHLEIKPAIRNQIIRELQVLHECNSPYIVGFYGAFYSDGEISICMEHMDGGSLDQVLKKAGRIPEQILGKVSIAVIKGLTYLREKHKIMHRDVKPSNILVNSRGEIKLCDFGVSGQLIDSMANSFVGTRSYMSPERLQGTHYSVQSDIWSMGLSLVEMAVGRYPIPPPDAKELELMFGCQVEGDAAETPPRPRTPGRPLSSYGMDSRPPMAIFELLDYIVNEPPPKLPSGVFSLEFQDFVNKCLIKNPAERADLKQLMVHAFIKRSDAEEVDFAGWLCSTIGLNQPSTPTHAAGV
Cyclin-dependent kinase-like 3 (Homo sapiens), sequence (Q8IVW4 whole entry, looked up): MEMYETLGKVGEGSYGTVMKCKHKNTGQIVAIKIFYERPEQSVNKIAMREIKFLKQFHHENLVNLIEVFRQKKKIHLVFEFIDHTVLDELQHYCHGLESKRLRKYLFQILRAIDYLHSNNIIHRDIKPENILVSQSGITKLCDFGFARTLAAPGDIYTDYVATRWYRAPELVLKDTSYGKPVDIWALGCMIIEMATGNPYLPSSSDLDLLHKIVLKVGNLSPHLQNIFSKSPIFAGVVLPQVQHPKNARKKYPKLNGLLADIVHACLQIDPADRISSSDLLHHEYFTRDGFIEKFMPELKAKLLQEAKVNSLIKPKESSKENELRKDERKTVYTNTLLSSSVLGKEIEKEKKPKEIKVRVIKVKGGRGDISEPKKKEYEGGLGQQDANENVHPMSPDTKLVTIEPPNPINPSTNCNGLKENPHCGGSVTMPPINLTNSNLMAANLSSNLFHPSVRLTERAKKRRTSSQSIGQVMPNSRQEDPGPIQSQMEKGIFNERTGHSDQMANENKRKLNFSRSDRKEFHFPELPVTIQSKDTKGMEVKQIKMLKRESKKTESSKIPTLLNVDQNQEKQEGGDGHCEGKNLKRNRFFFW
Calcium/calmodulin-dependent protein kinase type 1D (Homo sapiens), sequence (Q8IU85 whole entry, looked up): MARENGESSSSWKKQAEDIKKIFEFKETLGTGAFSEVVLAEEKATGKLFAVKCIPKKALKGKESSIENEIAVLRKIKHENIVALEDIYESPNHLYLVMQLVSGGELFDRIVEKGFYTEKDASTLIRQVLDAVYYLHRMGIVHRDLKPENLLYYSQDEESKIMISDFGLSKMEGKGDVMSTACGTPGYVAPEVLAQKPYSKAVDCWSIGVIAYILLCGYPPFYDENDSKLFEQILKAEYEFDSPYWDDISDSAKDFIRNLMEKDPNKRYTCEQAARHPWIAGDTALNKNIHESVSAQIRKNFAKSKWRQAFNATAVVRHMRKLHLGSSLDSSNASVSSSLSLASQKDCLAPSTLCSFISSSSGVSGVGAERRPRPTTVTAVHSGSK
RAC-beta serine/threonine-protein kinase (Homo sapiens), P31751 [S474D], sequence (P31751 whole entry S474D): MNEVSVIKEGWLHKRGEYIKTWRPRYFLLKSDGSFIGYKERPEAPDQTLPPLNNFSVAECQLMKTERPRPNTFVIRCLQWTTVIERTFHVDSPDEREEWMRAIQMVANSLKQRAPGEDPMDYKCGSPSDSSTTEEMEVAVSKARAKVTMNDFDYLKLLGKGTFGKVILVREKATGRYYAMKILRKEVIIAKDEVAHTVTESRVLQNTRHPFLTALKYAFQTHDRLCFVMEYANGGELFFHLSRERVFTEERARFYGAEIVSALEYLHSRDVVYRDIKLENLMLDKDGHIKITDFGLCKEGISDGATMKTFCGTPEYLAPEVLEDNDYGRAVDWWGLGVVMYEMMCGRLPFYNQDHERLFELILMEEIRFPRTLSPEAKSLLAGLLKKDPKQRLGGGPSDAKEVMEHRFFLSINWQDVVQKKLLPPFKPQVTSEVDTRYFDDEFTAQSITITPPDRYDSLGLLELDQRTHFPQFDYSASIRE
MAP kinase-activated protein kinase 3 (Homo sapiens), sequence (Q16644 whole entry, looked up): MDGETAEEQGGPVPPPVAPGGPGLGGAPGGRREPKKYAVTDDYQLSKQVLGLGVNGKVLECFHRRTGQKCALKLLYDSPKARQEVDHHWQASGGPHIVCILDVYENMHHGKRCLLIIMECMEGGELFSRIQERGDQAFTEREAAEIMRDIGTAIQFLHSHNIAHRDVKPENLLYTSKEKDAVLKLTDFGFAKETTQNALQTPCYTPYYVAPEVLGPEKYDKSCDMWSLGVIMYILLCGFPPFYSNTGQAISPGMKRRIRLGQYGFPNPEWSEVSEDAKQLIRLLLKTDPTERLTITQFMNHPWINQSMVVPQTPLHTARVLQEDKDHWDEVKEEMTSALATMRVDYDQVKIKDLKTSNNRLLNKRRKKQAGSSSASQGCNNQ

With `N=C1NC(=O)/C(=C\c2ccc(-c3cccc([N+](=O)[O-])c3)o2)S1`, the Activity turned out to be 99% in [1]; 101% in experiment [2]; 93% in [3]; 54% in [4]; 60% in [5]; 82% in experiment [6]. For the same compound, the Activity came to 1% in [7]; 2% in experiment [8]; 97% in [9]; 88% in [10]; 103% in experiment [11]; 107% in experiment [12]. Besides, the Activity is 99% in experiment [13]; 111% in experiment [14]; 103% in experiment [15]; 93% in experiment [16]; 93% in [17]; 101% in experiment [18]. Also, the Activity in experiment [19] amounted to 106%; in experiment [20], 102%; in [21], 99%.
In the case of `C=CCOC(=O)c1cc(-c2ccc(/C=C3/NC(=S)NC3=O)o2)ccc1Cl`, the Activity in experiment [1] amounted to 95%; in experiment [2], 102%; in experiment [3], 87%; in experiment [4], 67%; in experiment [5], 18%; in experiment [6], 91%. The Activity in experiment [7] came out at 5%; in experiment [8] it was 7%; in experiment [9], 96%; in [10], 96%; in experiment [11], 98%; in [12] it was 98%. The Activity in experiment [13] worked out at 108%; in [14], 102%; in experiment [15], 104%; in experiment [16], 82%; in [17] it was 100%; in experiment [18] it was 100%. The Activity in [19] came out at 107%; in experiment [20], 100%; in experiment [21], 98%.
